From ChEMBL document CHEMBL3046079, “Synthesis, herbicidal activity, and mode of action of IR 5790” (J Agric Food Chem, 2001)

What was measured:
Portulaca oleracea [1] = assay: Post-emergence herbicidal activity against Portulaca oleracea assessed as injury at 150 g/ha applied at 15 days post-sowing measured after 15 days relative to control; assay type: functional
Abutilon theophrasti [2] = assay: Post-emergence herbicidal activity against Abutilon theophrasti (velvetleaf) assessed as injury at 15 g/ha applied at 15 days post-sowing measured after 15 days relative to control; assay type: functional
Persicaria maculosa [3] = assay: Pre-emergence herbicidal activity against Persicaria maculosa assessed as injury at 50 g/ha applied at 24 hr post-sowing measured after 28 days relative to control; assay type: functional
Calystegia sepium = assay: Post-emergence herbicidal activity against Calystegia sepium assessed as injury at 50 g/ha applied at 15 days post-sowing measured after 15 days relative to control; assay type: functional
Brassica napus [4] = assay: Phytotoxicity against Brassica napus (oilseed rape) assessed as injury at 150 g/ha applied as pre-emergent treatment at 24 hr post-sowing measured after 28 days relative to control; assay type: organism-based; conditions: in vivo, other, 672 h
Echinochloa crus-galli = assay: Post-emergence herbicidal activity against Echinochloa crus-galli (barnyard grass) assessed as injury at 150 g/ha applied at 15 days post-sowing measured after 15 days relative to control; assay type: functional
Zea mays [5] = assay: Phytotoxicity against Zea mays (maize) assessed as injury at 50 g/ha applied as post-emergent treatment at 15 days post-sowing measured after 15 days relative to control; assay type: organism-based; conditions: in vivo, other, 360 h
Oryza sativa = assay: Phytotoxicity against Oryza sativa (rice) assessed as injury at 150 g/ha applied as pre-emergent treatment at 24 hr post-sowing measured after 28 days relative to control; assay type: organism-based; conditions: in vivo, other, 672 h
Xanthium strumarium = assay: Post-emergence herbicidal activity against Xanthium strumarium (cocklebur) assessed as injury at 50 g/ha applied at 15 days post-sowing measured after 15 days relative to control; assay type: functional
Ipomoea purpurea = assay: Pre-emergence herbicidal activity against Ipomoea purpurea (common morning-glory) assessed as injury at 50 g/ha applied at 24 hr post-sowing measured after 28 days relative to control; assay type: functional
Amaranthus retroflexus = assay: Post-emergence herbicidal activity against Amaranthus retroflexus assessed as injury at 50 g/ha applied at 15 days post-sowing measured after 15 days relative to control; assay type: functional
Digitaria sanguinalis = assay: Pre-emergence herbicidal activity against Digitaria sanguinalis (hairy crabgrass) assessed as injury at 50 g/ha applied at 24 hr post-sowing measured after 28 days relative to control; assay type: functional
Portulaca oleracea [6] = assay: Pre-emergence herbicidal activity against Portulaca oleracea assessed as injury at 150 g/ha applied at 24 hr post-sowing measured after 28 days relative to control; assay type: functional
Glycine max = assay: Phytotoxicity against Glycine max (soybean) assessed as injury at 150 g/ha applied as pre-emergent treatment at 24 hr post-sowing measured after 28 days relative to control; assay type: organism-based; conditions: in vivo, other, 672 h
Portulaca oleracea [7] = assay: Post-emergence herbicidal activity against Portulaca oleracea assessed as injury at 50 g/ha applied at 15 days post-sowing measured after 15 days relative to control; assay type: functional
Phalaris arundinacea = assay: Post-emergence herbicidal activity against Phalaris arundinacea assessed as injury at 150 g/ha applied at 15 days post-sowing measured after 15 days relative to control; assay type: functional
Brassica napus [8] = assay: Phytotoxicity against Brassica napus (oilseed rape) assessed as injury at 50 g/ha applied as pre-emergent treatment at 24 hr post-sowing measured after 28 days relative to control; assay type: organism-based; conditions: in vivo, other, 672 h
Zea mays [9] = assay: Phytotoxicity against Zea mays (maize) assessed as injury at 150 g/ha applied as post-emergent treatment at 15 days post-sowing measured after 15 days relative to control; assay type: organism-based; conditions: in vivo, other, 360 h
Abutilon theophrasti [10] = assay: Pre-emergence herbicidal activity against Abutilon theophrasti (velvetleaf) assessed as injury at 50 g/ha applied at 24 hr post-sowing measured after 28 days relative to control; assay type: functional
Avena fatua = assay: Pre-emergence herbicidal activity against Avena fatua assessed as injury at 50 g/ha applied at 24 hr post-sowing measured after 28 days relative to control; assay type: functional
Persicaria maculosa [11] = assay: Post-emergence herbicidal activity against Persicaria maculosa assessed as injury at 5 g/ha applied at 15 days post-sowing measured after 15 days relative to control; assay type: functional
[12] = target: T1, Putative protoporphyrinogen IX oxidase (Cucumis sativus) (UniProt C6L817); assay: Inhibition of protoporphyrin oxidase in Cucumis sativus (cucumber) cotyledon disc assessed as increase in extraplastidic protoporphyrin 9 accumulation at 10 uM incubated in dim light for 2 hr by HPLC analysis relative to control
T1 sequence (whole entry): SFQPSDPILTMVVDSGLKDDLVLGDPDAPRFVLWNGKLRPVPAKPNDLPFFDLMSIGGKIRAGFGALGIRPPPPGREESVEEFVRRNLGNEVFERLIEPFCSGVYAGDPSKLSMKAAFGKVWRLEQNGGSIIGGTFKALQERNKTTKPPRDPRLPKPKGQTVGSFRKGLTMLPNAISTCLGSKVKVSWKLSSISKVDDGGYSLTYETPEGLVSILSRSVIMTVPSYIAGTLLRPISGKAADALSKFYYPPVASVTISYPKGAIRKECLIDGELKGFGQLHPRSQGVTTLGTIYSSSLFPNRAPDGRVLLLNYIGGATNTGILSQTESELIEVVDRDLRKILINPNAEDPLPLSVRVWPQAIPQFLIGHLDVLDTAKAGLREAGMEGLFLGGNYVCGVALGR

Setaria viridis = assay: Post-emergence herbicidal activity against Setaria viridis (green foxtail) assessed as injury at 150 g/ha applied at 15 days post-sowing measured after 15 days relative to control; assay type: functional
Solanum nigrum [13] = assay: Post-emergence herbicidal activity against Solanum nigrum (black nightshade) assessed as injury at 150 g/ha applied at 15 days post-sowing measured after 15 days relative to control; assay type: functional
Gossypium hirsutum = assay: Phytotoxicity against Gossypium hirsutum (cotton) assessed as injury at 150 g/ha applied as post-emergent treatment at 15 days post-sowing measured after 15 days relative to control; assay type: organism-based; conditions: in vivo, other, 360 h
Portulaca oleracea [14] = assay: Post-emergence herbicidal activity against Portulaca oleracea assessed as injury at 5 g/ha applied at 15 days post-sowing measured after 15 days relative to control; assay type: functional
Abutilon theophrasti [15] = assay: Post-emergence herbicidal activity against Abutilon theophrasti (velvetleaf) assessed as injury at 50 g/ha applied at 15 days post-sowing measured after 15 days relative to control; assay type: functional
Portulaca oleracea [16] = assay: Post-emergence herbicidal activity against Portulaca oleracea assessed as injury at 15 g/ha applied at 15 days post-sowing measured after 15 days relative to control; assay type: functional
Abutilon theophrasti [17] = assay: Post-emergence herbicidal activity against Abutilon theophrasti (velvetleaf) assessed as injury at 150 g/ha applied at 15 days post-sowing measured after 15 days relative to control; assay type: functional
Solanum nigrum [18] = assay: Post-emergence herbicidal activity against Solanum nigrum (black nightshade) assessed as injury at 50 g/ha applied at 15 days post-sowing measured after 15 days relative to control; assay type: functional
Abutilon theophrasti [19] = assay: Pre-emergence herbicidal activity against Abutilon theophrasti (velvetleaf) assessed as injury at 150 g/ha applied at 24 hr post-sowing measured after 28 days relative to control; assay type: functional
Triticum aestivum = assay: Phytotoxicity against Triticum aestivum (wheat) assessed as injury at 15 g/ha applied as post-emergent treatment at 15 days post-sowing measured after 15 days relative to control; assay type: organism-based; conditions: in vivo, other, 360 h

C#CCOc1cc(-n2nc(C(C)(C)C)sc2=O)c(Cl)cc1Cl
Activity (Portulaca oleracea [1]): 90%
Activity (Abutilon theophrasti [2]): 30%
Activity (Persicaria maculosa [3]): 0%
Activity (Calystegia sepium): 70%
Activity (Brassica napus [4]): 0%
Activity (Echinochloa crus-galli): 10%
Activity (Zea mays [5]): 0%
Activity (Oryza sativa): 0%
Activity (Xanthium strumarium): 10%
Activity (Ipomoea purpurea): 0%
Activity (Amaranthus retroflexus): 50%
Activity (Digitaria sanguinalis): 70%
Activity (Portulaca oleracea [6]): 90%
Activity (Glycine max): 0%
Activity (Portulaca oleracea [7]): 90%
Activity (Phalaris arundinacea): 30%
Activity (Brassica napus [8]): 0%
Activity (Zea mays [9]): 0%
Activity (Abutilon theophrasti [10]): 0%
Activity (Avena fatua): 0%
Activity (Persicaria maculosa [11]): 30%
fold change (FC) [12]: 234
Activity (Setaria viridis): 70%
Activity (Solanum nigrum [13]): 90%
Activity (Gossypium hirsutum): 70%
Activity (Portulaca oleracea [14]): 50%
Activity (Abutilon theophrasti [15]): 70%
Activity (Portulaca oleracea [16]): 70%
Activity (Abutilon theophrasti [17]): 90%
Activity (Solanum nigrum [18]): 90%
Activity (Abutilon theophrasti [19]): 0%
Activity (Triticum aestivum): 0%
